Assay results published in US8192962B2, “Processes for detecting toxic substances” (Daikin Industries, Ltd., priority 2001, dated 2012).

System: Unknown protein yeast genes
Assay: DNA chip mRNA expression in yeast, unknown protein yeast genes (Table 1)
Assay type: cell-based, Saccharomyces cerevisiae S288C
Procedure, shortened: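 Ratios compare mRNA levels in stressed and control S. cerevisiae. Each toxicant was applied for two hours to log-phase cultures at 25° C. at a sub-lethal, growth-inhibiting level; fluorescent cDNA (Cy3- or Cy5-dUTP) was hybridized to a genome-wide yeast chip for over 12 h at 65° C.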

CCCCCCCCCCCCOS(=O)(=O)[O-].[Na+] [(18), sodium lauryl sulfate]
The level of expressed mRNA in the presence of chemical substance/The level of expressed mRNA in the absence of chemical substance (yeast gene YAL053W, incubated two hours with chemical substance): 1.6
The level of expressed mRNA in the presence of chemical substance/The level of expressed mRNA in the absence of chemical substance (yeast gene YBL048W): 1.0
The level of expressed mRNA in the presence of chemical substance/The level of expressed mRNA in the absence of chemical substance (yeast gene YBL107C): 1.4
The level of expressed mRNA in the presence of chemical substance/The level of expressed mRNA in the absence of chemical substance (yeast gene YDL072C, incubated two hours with chemical substance): 2.8
The level of expressed mRNA in the presence of chemical substance/The level of expressed mRNA in the absence of chemical substance (yeast gene YDL110C): 4.4
The level of expressed mRNA in the presence of chemical substance/The level of expressed mRNA in the absence of chemical substance (yeast gene YDL204W, incubated two hours with chemical substance): 2.7
The level of expressed mRNA in the presence of chemical substance/The level of expressed mRNA in the absence of chemical substance (yeast gene YDL222C, incubated two hours with chemical substance): 1.3
The level of expressed mRNA in the presence of chemical substance/The level of expressed mRNA in the absence of chemical substance (yeast gene YDR330W, incubated two hours with chemical substance): 1.3
The level of expressed mRNA in the presence of chemical substance/The level of expressed mRNA in the absence of chemical substance (yeast gene YDR391C, incubated two hours with chemical substance): 2.4
The level of expressed mRNA in the presence of chemical substance/The level of expressed mRNA in the absence of chemical substance (yeast gene YDR411C, incubated two hours with chemical substance): 1.3
The level of expressed mRNA in the presence of chemical substance/The level of expressed mRNA in the absence of chemical substance (yeast gene YDR511W, incubated two hours with chemical substance): 1.5
The level of expressed mRNA in the presence of chemical substance/The level of expressed mRNA in the absence of chemical substance (yeast gene YDR533C): 2.7
The level of expressed mRNA in the presence of chemical substance/The level of expressed mRNA in the absence of chemical substance (yeast gene YDR545W, incubated two hours with chemical substance): 0.9
The level of expressed mRNA in the presence of chemical substance/The level of expressed mRNA in the absence of chemical substance (yeast gene YEL001C, incubated two hours with chemical substance): 1.3
The level of expressed mRNA in the presence of chemical substance/The level of expressed mRNA in the absence of chemical substance (yeast gene YER004W, incubated two hours with chemical substance): 1.2
The level of expressed mRNA in the presence of chemical substance/The level of expressed mRNA in the absence of chemical substance (yeast gene YER035W, incubated two hours with chemical substance): 2.1
The level of expressed mRNA in the presence of chemical substance/The level of expressed mRNA in the absence of chemical substance (yeast gene YER079W, incubated two hours with chemical substance): 1.6
The level of expressed mRNA in the presence of chemical substance/The level of expressed mRNA in the absence of chemical substance (yeast gene YER106W, incubated two hours with chemical substance): 0.8
The level of expressed mRNA in the presence of chemical substance/The level of expressed mRNA in the absence of chemical substance (yeast gene YER158C, incubated two hours with chemical substance): 1.2
The level of expressed mRNA in the presence of chemical substance/The level of expressed mRNA in the absence of chemical substance (yeast gene YER163C, incubated two hours with chemical substance): 1.2
The level of expressed mRNA in the presence of chemical substance/The level of expressed mRNA in the absence of chemical substance (yeast gene YER175C, incubated two hours with chemical substance): 1.2
The level of expressed mRNA in the presence of chemical substance/The level of expressed mRNA in the absence of chemical substance (yeast gene YFL006W, incubated two hours with chemical substance): 0.8
The level of expressed mRNA in the presence of chemical substance/The level of expressed mRNA in the absence of chemical substance (yeast gene YFL010C, incubated two hours with chemical substance): 1.6
The level of expressed mRNA in the presence of chemical substance/The level of expressed mRNA in the absence of chemical substance (yeast gene YFL024C): 0.8
The level of expressed mRNA in the presence of chemical substance/The level of expressed mRNA in the absence of chemical substance (yeast gene YFL032W, incubated two hours with chemical substance): 0.8
The level of expressed mRNA in the presence of chemical substance/The level of expressed mRNA in the absence of chemical substance (yeast gene YGL037C, incubated two hours with chemical substance): 2.6
The level of expressed mRNA in the presence of chemical substance/The level of expressed mRNA in the absence of chemical substance (yeast gene YGL047W, incubated two hours with chemical substance): 1.2
The level of expressed mRNA in the presence of chemical substance/The level of expressed mRNA in the absence of chemical substance (yeast gene YGL053W, incubated two hours with chemical substance): 3.7
The level of expressed mRNA in the presence of chemical substance/The level of expressed mRNA in the absence of chemical substance (yeast gene YGL121C): 3.5
The level of expressed mRNA in the presence of chemical substance/The level of expressed mRNA in the absence of chemical substance (yeast gene YGL199C, incubated two hours with chemical substance): 1.0
The level of expressed mRNA in the presence of chemical substance/The level of expressed mRNA in the absence of chemical substance (yeast gene YGR101W, incubated two hours with chemical substance): 1.1
The level of expressed mRNA in the presence of chemical substance/The level of expressed mRNA in the absence of chemical substance (yeast gene YGR110W): 2.1
The level of expressed mRNA in the presence of chemical substance/The level of expressed mRNA in the absence of chemical substance (yeast gene YGR130C, incubated two hours with chemical substance): 1.6
The level of expressed mRNA in the presence of chemical substance/The level of expressed mRNA in the absence of chemical substance (yeast gene YGR154C, incubated two hours with chemical substance): 1.2
The level of expressed mRNA in the presence of chemical substance/The level of expressed mRNA in the absence of chemical substance (yeast gene YGR221C, incubated two hours with chemical substance): 1.3
The level of expressed mRNA in the presence of chemical substance/The level of expressed mRNA in the absence of chemical substance (yeast gene YGR243W): 4.4
The level of expressed mRNA in the presence of chemical substance/The level of expressed mRNA in the absence of chemical substance (yeast gene YHR054C): 3.4
The level of expressed mRNA in the presence of chemical substance/The level of expressed mRNA in the absence of chemical substance (yeast gene YHR138C, incubated two hours with chemical substance): 7.1
The level of expressed mRNA in the presence of chemical substance/The level of expressed mRNA in the absence of chemical substance (yeast gene YHR199C, incubated two hours with chemical substance): 0.9
The level of expressed mRNA in the presence of chemical substance/The level of expressed mRNA in the absence of chemical substance (yeast gene YHR209W): 2.6
The level of expressed mRNA in the presence of chemical substance/The level of expressed mRNA in the absence of chemical substance (yeast gene YIL023C, incubated two hours with chemical substance): 1.0
The level of expressed mRNA in the presence of chemical substance/The level of expressed mRNA in the absence of chemical substance (yeast gene YIL041W, incubated two hours with chemical substance): 1.1
The level of expressed mRNA in the presence of chemical substance/The level of expressed mRNA in the absence of chemical substance (yeast gene YIL087C, incubated two hours with chemical substance): 1.6
The level of expressed mRNA in the presence of chemical substance/The level of expressed mRNA in the absence of chemical substance (yeast gene YJL057C, incubated two hours with chemical substance): 1.5
The level of expressed mRNA in the presence of chemical substance/The level of expressed mRNA in the absence of chemical substance (yeast gene YJL066C, incubated two hours with chemical substance): 1.5
The level of expressed mRNA in the presence of chemical substance/The level of expressed mRNA in the absence of chemical substance (yeast gene YJL082W, incubated two hours with chemical substance): 0.3
The level of expressed mRNA in the presence of chemical substance/The level of expressed mRNA in the absence of chemical substance (yeast gene YJL151C, incubated two hours with chemical substance): 2.4
The level of expressed mRNA in the presence of chemical substance/The level of expressed mRNA in the absence of chemical substance (yeast gene YJL152W, incubated two hours with chemical substance): 1.7
The level of expressed mRNA in the presence of chemical substance/The level of expressed mRNA in the absence of chemical substance (yeast gene YJL161W, incubated two hours with chemical substance): 2.1
The level of expressed mRNA in the presence of chemical substance/The level of expressed mRNA in the absence of chemical substance (yeast gene YJL171C, incubated two hours with chemical substance): 2.9
The level of expressed mRNA in the presence of chemical substance/The level of expressed mRNA in the absence of chemical substance (yeast gene YJR008W, incubated two hours with chemical substance): 2.7
The level of expressed mRNA in the presence of chemical substance/The level of expressed mRNA in the absence of chemical substance (yeast gene YJR054W, incubated two hours with chemical substance): 0.9
The level of expressed mRNA in the presence of chemical substance/The level of expressed mRNA in the absence of chemical substance (yeast gene YKL071W): 0.9
The level of expressed mRNA in the presence of chemical substance/The level of expressed mRNA in the absence of chemical substance (yeast gene YKL086W, incubated two hours with chemical substance): 1.0
